Test system: bacterial pool of E. coli, S. aureus, and P. aeruginosa
Assay: Antibacterial challenge testing of foaming hand soap (Example 2A)
Format: cell-based
Procedure: For antibacterial challenge testing, one vial each of E. coli, S. aureus, and P. aeruginosa was rehydrated in 1 mL peptone buffer. The concentrations of the cell suspensions were determined based on the Certificates of Analysis accompanying each bacteria vial, and the suspensions were combined and diluted in BPDB to make a 3×10^8 CFU/mL bacterial pool composed of 1×10^8 CFU/mL of each of E. coli, S. aureus, and P. aeruginosa at a final volume of 1 mL. For antifungal challenge testing, one vial of C. albicans was rehydrated in 1 mL peptone buffer. The concentration of the cell suspension was determined based on the Certificate of Analysis accompanying the vial of yeast. The resuspended cells were diluted in BPDB to 3×10^7 CFU/mL at a final volume of 1 mL.
The enumeration of the microbial population in antibacterial and antifungal challenge testing was performed in the following manner. At day 0, a 3-mL sample was collected from each of the prepared formulations and inoculated with 0.03 mL of the bacterial pool to obtain a final inoculum of 3×10^6 CFU/mL. The inoculated samples were maintained under the same conditions from day 0 to day 7. At each analysis timepoint, the inoculated samples were subjected to 10-fold serial dilutions in BPDB to obtain diluted samples such that 25-250 colonies were estimated to be yielded from 0.1 mL of the diluted sample plated on a tryptic soy agar petri dish containing Polysorbate 80 and Lecithin. The petri dishes were incubated at 31.5+/−1° C. for 24 to 48 hours. The petri dishes were then removed from the incubator and the colonies were counted and multiplied by their corresponding dilution factors to determine the bacterial concentrations (in CFU/mL) of the samples. At day 2 and day 7 post-inoculation, the serial dilutions, plating, and colony counting were repeated to monitor the changes in bacterial population.

[1] = foaming hand soap pH 6.5, sodium benzoate 0.5% alone
[2] = foaming hand soap pH 6.5, sodium benzoate 0.5% alone, listed as sodium benzoate
[3] = foaming hand soap pH 7.0, sodium benzoate 1% alone
[4] = foaming hand soap pH 7.0, sodium benzoate 1% alone, listed as sodium benzoate
[5] = foaming hand soap pH 7.5, sodium benzoate 1% alone
[6] = foaming hand soap pH 8.0, sodium benzoate 1% alone

Compound: O=C([O-])c1ccccc1.[Na+] [Sodium Benzoate, Sodium benzoate]
- Day 2 log reduction in CFU/mL compared to Day 0 [1]: 0.84 log CFU/mL
- Day 2 log reduction in CFU/mL compared to Day 0 [2]: Modest reductions
- Day 7 log reduction in CFU/mL compared to Day 0 [1]: −1.25 log CFU/mL
- Day 7 log reduction in CFU/mL compared to Day 0 [2]: no reduction
- Day 2 log reduction in CFU/mL compared to Day 0 [3]: 0.88 log CFU/mL
- Day 2 log reduction in CFU/mL compared to Day 0 [4]: Modest reductions
- Day 7 log reduction in CFU/mL compared to Day 0 [3]: −1.39 log CFU/mL
- Day 7 log reduction in CFU/mL compared to Day 0 [4]: no reduction
- Day 2 log reduction in CFU/mL compared to Day 0 [5]: −0.62 log CFU/mL
- Day 7 log reduction in CFU/mL compared to Day 0 [5]: −1.23 log CFU/mL
- Day 7 log reduction in CFU/mL compared to Day 0 (foaming hand soap pH 7.5, sodium benzoate 1% alone, listed as sodium benzoate): no reduction
- Day 2 log reduction in CFU/mL compared to Day 0 [6]: −0.90 log CFU/mL
- Day 7 log reduction in CFU/mL compared to Day 0 [6]: −0.91 log CFU/mL
- Day 7 log reduction in CFU/mL compared to Day 0 (foaming hand soap pH 8.0, sodium benzoate 1% alone, listed as sodium benzoate): no reduction

Source: patent US20250204525A1, “ANTIMICROBIAL COMPOSITIONS” (Curie Co. Inc., priority 2023, published 2025)
